{
  "source": "patent US20090088345A1",
  "about": "“NECESSARY AND SUFFICIENT REAGENT SETS FOR CHEMOGENOMIC ANALYSIS” (priority 2004, published 2009)",
  "test_system": "PPARα signature",
  "assay": "Scalar product (signature score) of compound treatments against PPARα gene signatures from rat liver microarray expression profiles",
  "format": "in vivo",
  "conditions": "previous observation, original PPARα signature",
  "description": "“Scalar product” (or “Signature score”) as used herein refers to the sum of impacts for all genes in a signature less the bias for that signature.\nThe detailed description of the construction of this chemogenomic dataset is described in Examples 1 and 2 of Published U.S. Pat. Appl. No. 2005/0060102 A1, published Mar. 17, 2005, which is hereby incorporated by reference for all purposes. Briefly, in vivo short-term repeat dose rat studies were conducted on over 580 test compounds, including marketed and withdrawn drugs, environmental and industrial toxicants, and standard biochemical reagents. Rats (three per group) were dosed daily at either a low or high dose. The low dose was an efficacious dose estimated from the literature and the high dose was an empirically-determined maximum tolerated dose, defined as the dose that causes a 50% decrease in body weight gain relative to controls during the course of the 5 day range finding study. Animals were necropsied on days 0.25, 1, 3, and 5 or 7. […]\nLog10-ratios are computed for each gene as the difference of the averaged logs of the experimental signals from (usually) three drug-treated animals and the averaged logs of the control signals from (usually) 20 mock vehicle-treated animals. To assign a significance level to each gene expression change, the standard error for the measured change between the experiments and controls is computed. […]",
  "data": [
    {"smiles": "CC(C)(Oc1ccc(Cl)cc1)C(=O)O", "note": "[clofibric acid]", "values": [
      {"measurement": "scalar product against the PPARα signature", "result": "weakest of the known PPARα agonists"}
    ]}
  ]
}
